≈ marks a conversion by molar mass, not a printed value. Where two headings read alike, the source gives them in different places.
Tests used:
[1] = test system: Staphylococcus epidermidis (TISTR 517); experiment: Antimicrobial activity, broth microdilution; format: cell-based; settings: TISTR517, S. epidermidis
Experimental: (§1) Microorganisms that cause skin infection, such as Staphylococcus aureus (ATTC 25923), Staphylococcus epidermidis (TISTR 517), Cutibacterium acnes (DMST 14916), and methicillin-resistant Staphylococcus aureus (DMST20654),t were selected for this study. The isolated compounds were determined for minimum inhibitory concentration (MIC) and minimum bactericidal concentration (MBC) by a modified broth microdilution method. Briefly, 20 µL of the test samples (dilution series ranging from 2560 to 1.25 µg/mL) was added in wells 1 to 12. Then, 80 µL of media was added into each well. Next, 100 µL of the inoculum (concentration 10^6 CFU/mL) was added in each well. The final concentration of inoculum in each well was 5 × 10^5 CFU/mL. Then, the cultures were incubated follow the conditions. Incubation mixtures showing positive results of inhibitory effect (MIC) were streaked on media agar, and then incubated by following the conditions.

[2] = test system: Cutibacterium acnes (DMST 14916); experiment: Antimicrobial activity, broth microdilution; format: cell-based; settings: C. acnes
Experimental: as §1

[3] = test system: Staphylococcus aureus (ATTC 25923); experiment: Antimicrobial activity, broth microdilution; format: cell-based; settings: S. aureus
Experimental: as §1

tyrosinase enzyme = experiment: Enzymatic antityrosinase activity, dopachrome method (L-Dopa substrate); format: biochemical; settings: pH 6.8, 25 °C
Experimental: Antityrosinase activity was determined by the dopachrome method. L-dopa was used as the substrate. Oxidation of L-Dopa to dopachrome which, represented by red color, could be detected by visible light at 492 nm. Briefly, 140 µL of phosphate buffer pH 6.8, 20 µL of sample solution (200 µg/mL), and 2 µL of tyrosinase enzyme solution (203.3 unit/mL) were mixed in a 96-well plate at 25 °C for 10 min. Then, 20 µL of L-Dopa (0.85 mM) was added, and optical density (OD) was detected. After incubation at 25 °C for 20 min, OD was detected again. Dimethyl sulfoxide (DMSO) was used as a negative control. […] The percent inhibition of tyrosinase reaction was calculated by the following equation:Tyrosinase inhibition (%) = [1 − (OD492 of sample/OD492 of control)] × 100.

[4] = test system: methicillin-resistant Staphylococcus aureus (DMST20654); experiment: Antimicrobial activity, broth microdilution; format: cell-based; settings: MRSA
Experimental: as §1

B16F1 melanoma cells [5] = experiment: Intracellular antityrosinase activity; format: cell-based, murine; settings: 50 µg/mL, 48 h
Experimental: (§2) Murine melanoma B16-F1 cells (CLS-400122) were cultured in DMEM or Dulbecco’s modified Eagle medium containing 10% FBS heat-inactivated fetal bovine serum at 37 °C in a humidified atmosphere with 5% CO2. When cells reached 70–80% confluence cell viability, cellular tyrosinase activity and melanin content were measured. First, 3 × 10^5 cells/well were seeded in 12-well plates and allowed to adhere at 37 °C for 12 h. Cells were treated with test samples; control cells were treated with 0.5% DMSO. After 48 h incubation, cells were lysed with RIPA and centrifuged at 14,000 rpm for 20 min (4 °C) in order to separate the supernatant for measurement of tyrosinase activity, and the cell pellet was measured for melanin content. The supernatant was collected for determination of protein content by the Bradford method, with bovine serum albumin (BSA) used as a standard. The supernatant of lysate cells and 2 mg/mL L-Dopa were added to a 96-well plate and incubated at 25 °C for 1 h. After that, optical densities were determined at 492 nm. Tyrosinase inhibition was then calculated.

B16F1 melanoma cells [6] = experiment: Melanin content; format: cell-based, murine; settings: 50 µg/mL, 48 h
Experimental: as §2, with “Cell pellets were dissolved” for “The supernatant was collected for determination of protein content by the Bradford method,”, “1M NaOH” for “bovine serum albumin (BSA) used as a standard. The supernatant of lysate cells and 2 mg/mL L-Dopa were added to a 96-well plate”, “55” for “25”, “Melanin content was calculated by comparison with the standard curve of synthetic melanin” for “After that, optical densities were determined”, “475” for “492”, “nm.” for “nm. Tyrosinase inhibition was then calculated.”

## Cc1onc(-c2ccccc2)c1C(=O)N[C@@H]1C(=O)N2[C@@H]1SC(C)(C)[C@@H]2C(=O)O [Oxa, Oxacillin, reference compound]
[1]
  MBC: 0.5 µg/mL (≈ 1.25 µM)
  MIC: 0.5 µg/mL (≈ 1.25 µM)
[2]
  MBC: 0.5 µg/mL (≈ 1.25 µM)
  MIC: 0.5 µg/mL (≈ 1.25 µM)
[3]
  MBC: 0.125 µg/mL (≈ 0.311 µM)
  MIC: 0.125 µg/mL (≈ 0.311 µM)

## COc1cc2oc(-c3ccc(O)cc3O)c(CC=C(C)C)c(=O)c2c(O)c1/C=C/C(C)C [Compound 8, artocarpin]
Tyrosinase enzyme
  IC50 on tyrosinase inhibitory activity: >200 µg/mL
[1]
  MBC: 32 µg/mL (≈ 73.3 µM)
  MIC: 2 µg/mL (≈ 4.58 µM)
[2]
  MBC: 32 µg/mL (≈ 73.3 µM)
  MIC: 8 µg/mL (≈ 18.3 µM)
[3]
  MBC: 4 µg/mL (≈ 9.16 µM)
  MIC: 2 µg/mL (≈ 4.58 µM)
[4]; read-out: MBC
  MBC: 2 µg/mL (≈ 4.58 µM)
[4]; read-out: MIC
  MIC: 2 µg/mL (≈ 4.58 µM)

## CC(C)=CC(O)c1c(-c2cc(O)c(O)cc2O)oc2cc(O)cc(O)c2c1=O (stereo not shown) [Compound 2, 3-(Hydroxyprenyl) isoetin]
Tyrosinase enzyme
  IC50 on tyrosinase inhibitory activity: >200 µg/mL
[1]
  MBC: 32 µg/mL (≈ 82.8 µM)
  MIC: 16 µg/mL (≈ 41.4 µM)
[2]
  MBC: > 256 µg/mL
  MIC: 128 µg/mL (≈ 331 µM)
[3]
  MBC: 32 µg/mL (≈ 82.8 µM)
  MIC: 16 µg/mL (≈ 41.4 µM)
[4]; read-out: MBC
  MBC: 64 µg/mL (≈ 166 µM)
[4]; read-out: MIC
  MIC: 16 µg/mL (≈ 41.4 µM)

## O=C1C[C@@H](c2ccc(O)cc2)Oc2cc(O)cc(O)c21 [Compound 7, Naringenin]
Tyrosinase enzyme
  IC50 on tyrosinase inhibitory activity: >200 µg/mL
[1]
  MBC: > 256 µg/mL
  MIC: 256 µg/mL (≈ 940 µM)
[2]
  MBC: > 256 µg/mL
  MIC: > 256 µg/mL
[3]
  MBC: > 256 µg/mL
  MIC: > 256 µg/mL
[4]; read-out: MBC
  MBC: > 256 µg/mL
[4]; read-out: MIC
  MIC: > 256 µg/mL

## CC1(C)C=Cc2c(cc3oc4c(c(=O)c3c2O)CC2c3c(c(O)cc(O)c3-4)OC2(C)C)O1 (stereo not shown) [Compound 5, Isocycloartobiloxanthone]
Tyrosinase enzyme
  IC50 on tyrosinase inhibitory activity: >200 µg/mL
[1]
  MBC: 8 µg/mL (≈ 18.4 µM)
  MIC: 4 µg/mL (≈ 9.21 µM)
[2]
  MBC: > 256 µg/mL
  MIC: 256 µg/mL (≈ 589 µM)
[3]
  MBC: 8 µg/mL (≈ 18.4 µM)
  MIC: 4 µg/mL (≈ 9.21 µM)
[4]; read-out: MBC
  MBC: 64 µg/mL (≈ 147 µM)
[4]; read-out: MIC
  MIC: 16 µg/mL (≈ 36.8 µM)

## CN[C@H](CC(C)C)C(=O)N[C@H]1C(=O)N[C@@H](CC(N)=O)C(=O)N[C@H]2C(=O)N[C@H]3C(=O)N[C@H](C(=O)N[C@H](C(=O)O)c4cc(O)cc(O)c4-c4cc3ccc4O)[C@H](O)c3ccc(c(Cl)c3)Oc3cc2cc(c3O[C@@H]2O[C@H](CO)[C@@H](O)[C@H](O)[C@H]2O[C@H]2C[C@](C)(N)[C@H](O)[C@H](C)O2)Oc2ccc(cc2Cl)[C@H]1O [Van, Vancomycin, reference compound]
[4]
  MBC: 0.5 µg/mL (≈ 0.345 µM)
  MIC: 0.125 µg/mL (≈ 0.0863 µM)

## COc1cc(O)c2c(c1)O[C@H](c1ccc(O)cc1O)CC2=O [Compound 6, Artocarpanone]
B16F1 melanoma cells [5]
  Intracellular antityrosinase activity (result in words): exhibited antityrosinase activity
B16F1 melanoma cells [5]; listed as artocarpanone
  Intracellular antityrosinase activity (result in words): exhibited intracellular antityrosinase activity
Tyrosinase enzyme
  IC50 on tyrosinase inhibitory activity: 38.78 ± 1.02 µg/mL (≈ 128 µM)
B16F1 melanoma cells [6]
  Melanin content (result in words): could reduce the amount of melanin content
[1]
  MBC: 128 µg/mL (≈ 423 µM)
  MIC: 64 µg/mL (≈ 212 µM)
[2]
  MBC: 64 µg/mL (≈ 212 µM)
  MIC: 32 µg/mL (≈ 106 µM)
[3]
  MBC: 256 µg/mL (≈ 847 µM)
  MIC: 64 µg/mL (≈ 212 µM)
[4]; read-out: MBC
  MBC: > 256 µg/mL
[4]; read-out: MIC
  MIC: 128 µg/mL (≈ 423 µM)

## CC(C)=CCCC(C)=CCCC(C)=CCc1cc(-c2cc(=O)c3c(O)cc(O)cc3o2)ccc1O [Compound 1, 3′-Farnesylapigenin]
Tyrosinase enzyme
  IC50 on tyrosinase inhibitory activity: 135.70 ± 1.16 µg/mL (≈ 286 µM)
[1]
  MBC: > 256 µg/mL
  MIC: 256 µg/mL (≈ 539 µM)
[2]
  MBC: > 256 µg/mL
  MIC: > 256 µg/mL
[3]
  MBC: > 256 µg/mL
  MIC: 256 µg/mL (≈ 539 µM)
[4]; read-out: MBC
  MBC: > 256 µg/mL
[4]; read-out: MIC
  MIC: > 256 µg/mL

## COc1cc([C@@H]2CC(=O)c3c(O)cc(O)cc3O2)ccc1O [Compound 4, Homoeriodictyol]
[1]
  MBC: 256 µg/mL (≈ 847 µM)
  MIC: 128 µg/mL (≈ 423 µM)
[2]
  MBC: > 256 µg/mL
  MIC: > 256 µg/mL
[3]
  MBC: > 256 µg/mL
  MIC: 256 µg/mL (≈ 847 µM)
[4]; read-out: MBC
  MBC: > 256 µg/mL
[4]; read-out: MIC
  MIC: > 256 µg/mL

## COc1cc(O)c(-c2oc3cc(O)cc(O)c3c(=O)c2CC=C(C)C)cc1O [Compound 3, 3-Prenyl-5,7,2′,5′-tetrahydroxy-4′-methoxyflavone]
Tyrosinase enzyme
  IC50 on tyrosinase inhibitory activity: >200 µg/mL
[1]
  MBC: 64 µg/mL (≈ 167 µM)
  MIC: 16 µg/mL (≈ 41.6 µM)
[2]
  MBC: > 256 µg/mL
  MIC: 128 µg/mL (≈ 333 µM)
[3]
  MBC: 16 µg/mL (≈ 41.6 µM)
  MIC: 4 µg/mL (≈ 10.4 µM)
[4]; read-out: MBC
  MBC: 32 µg/mL (≈ 83.3 µM)
[4]; read-out: MIC
  MIC: 4 µg/mL (≈ 10.4 µM)

From publication PMC8746328, “Three New Isoprenylated Flavones from Artocarpus chama Stem and Their Bioactivities” (Molecules, 2021)
